Test results: patent publication US20210179598A1, “SELECTIVE JAK2 INHIBITOR AND APPLICATION THEREOF” (EAST CHINA UNIVERSITY OF SCIENCE AND TECHNOLOGY, priority 2018, published 2021)

Columns and labels:
H3122 cells = test: CCK-8 cell proliferation detection, H3122 cells; type: cell-based
Text: (§1) WST-8 (chemical name: 2-(2-methoxy-4-nitrophenyl)-3-(4-nitrophenyl)-5-(2,4-disulfo benzene)-2H-tetrazolium monosodium), which is reduced to a highly water-soluble yellow formazan product (Formazan dye) by the dehydrogenase in cells under the action of the electron carrier dimethyl 1-methoxy-5-methylphenazinium sulfate (1-Methoxy PMS). The amount of the produced formazan is proportional to the number of living cells. Therefore, the survival rate of cells can be calculated indirectly by measuring the absorbance at 450 nm. The half inhibition rate of the compound on the proliferation of H3122, SET2, HEL cells can be determined by the CCK-8 method.
(§2) RPIM medium containing 10% FBS was used to culture cells (100 μL per well), and 3500 cells were inoculated into a 96-well plate, and placed in a 37° C., 5% CO2 incubator for 24 h, until 50%-70% of the cell confluence was achieved. Drugs with different concentration gradients were added respectively, and incubated for another 72 hrs. […] And finally the absorption value of each well was measured at 450 nm.
(§3) NOTE: HEL, SET-2, H3122 cells were purchased from ATCC (American type culture collection), Z′-LYTETM kinase assay platform was purchased from Invitrogen, HTRF KinEASETM-TK was purchased from Cisbio, and Cell Counting Kit-8 was purchased from Beyotime.

ALK = ALK (Homo sapiens, UniProt Q9UM73); test: ALK kinase IC50 test (HTRF); type: biochemical
Sequence of ALK (Q9UM73 19-1620, species assumed): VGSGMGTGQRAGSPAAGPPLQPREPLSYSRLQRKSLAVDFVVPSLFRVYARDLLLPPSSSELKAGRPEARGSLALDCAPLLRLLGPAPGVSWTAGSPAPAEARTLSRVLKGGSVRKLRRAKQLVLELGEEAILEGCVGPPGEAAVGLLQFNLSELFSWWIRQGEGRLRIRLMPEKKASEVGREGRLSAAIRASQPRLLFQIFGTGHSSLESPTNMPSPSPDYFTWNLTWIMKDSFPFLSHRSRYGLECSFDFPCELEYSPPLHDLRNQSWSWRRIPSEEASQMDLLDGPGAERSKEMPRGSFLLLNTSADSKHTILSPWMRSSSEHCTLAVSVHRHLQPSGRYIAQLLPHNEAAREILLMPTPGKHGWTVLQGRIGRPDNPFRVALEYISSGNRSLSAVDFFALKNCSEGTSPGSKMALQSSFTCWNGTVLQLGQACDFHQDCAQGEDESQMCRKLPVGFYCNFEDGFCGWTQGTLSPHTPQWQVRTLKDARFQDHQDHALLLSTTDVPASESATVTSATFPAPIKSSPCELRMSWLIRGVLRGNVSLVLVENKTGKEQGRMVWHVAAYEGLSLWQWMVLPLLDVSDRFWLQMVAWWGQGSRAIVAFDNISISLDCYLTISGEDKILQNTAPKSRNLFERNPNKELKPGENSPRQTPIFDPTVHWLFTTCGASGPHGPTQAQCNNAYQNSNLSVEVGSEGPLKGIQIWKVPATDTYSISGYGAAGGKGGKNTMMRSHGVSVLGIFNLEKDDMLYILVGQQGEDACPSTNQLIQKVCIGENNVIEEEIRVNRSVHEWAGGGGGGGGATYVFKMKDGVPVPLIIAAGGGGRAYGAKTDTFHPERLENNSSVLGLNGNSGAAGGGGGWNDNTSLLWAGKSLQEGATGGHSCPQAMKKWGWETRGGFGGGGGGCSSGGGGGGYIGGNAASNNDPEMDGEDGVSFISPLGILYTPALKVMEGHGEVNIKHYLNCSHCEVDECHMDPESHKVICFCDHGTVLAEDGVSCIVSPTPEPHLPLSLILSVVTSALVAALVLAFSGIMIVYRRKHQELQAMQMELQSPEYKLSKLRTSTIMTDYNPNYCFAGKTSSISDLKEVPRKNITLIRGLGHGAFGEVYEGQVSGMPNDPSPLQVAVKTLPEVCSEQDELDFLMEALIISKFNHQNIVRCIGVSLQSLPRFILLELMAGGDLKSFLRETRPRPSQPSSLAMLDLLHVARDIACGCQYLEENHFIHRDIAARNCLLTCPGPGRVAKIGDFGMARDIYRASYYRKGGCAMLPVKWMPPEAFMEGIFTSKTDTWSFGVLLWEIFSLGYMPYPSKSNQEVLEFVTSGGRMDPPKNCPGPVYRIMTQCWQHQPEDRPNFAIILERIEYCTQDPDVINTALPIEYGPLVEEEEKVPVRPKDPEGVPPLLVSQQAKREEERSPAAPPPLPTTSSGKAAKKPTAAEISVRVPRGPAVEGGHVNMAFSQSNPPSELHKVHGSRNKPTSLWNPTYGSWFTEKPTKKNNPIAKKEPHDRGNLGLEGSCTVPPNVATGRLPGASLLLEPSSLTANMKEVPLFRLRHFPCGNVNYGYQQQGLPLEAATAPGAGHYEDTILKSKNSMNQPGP
Text: According to HTRF method, the peptide substrate was labeled with a biotin, which can specifically bind to XL665-labeled streptavidin. When the kinase adds a phosphate group to the polypeptide substrate in the first step, its Eu-labeled specific phosphorylation antibody can recognize and bind to it. In this way, in the second step of detection, a complex of XL665-labeled streptavidin, phosphorylated peptide substrate and Eu-labeled phosphorylation antibody can be formed. Since the distance between XL665 and Eu is short, FRET can be formed. On the other hand, Eu has a relatively long fluorescence half-life and can be applied to time-resolved fluorescence detection.
10 μL of reaction system, 4 μL test compound, 2 μL kinase, 2 μL biotin-labeled substrate and 2 μL ATP, was added into a 384-well plate, shaken for 30 s, and incubated at room temperature for 1 hour. 5 μL of Eu-labeled phosphorylation site-specific antibody and 5 μL of XL665-labeled streptavidin were added. The reaction system was shaken for 30 s, and incubated at room temperature for 1 hour. A microplate reader was used to detect the fluorescence signal. The inhibition rates of the compounds under 8 concentration gradients were determined, and the IC50 value of each compound was calculated by fitting curve with Origin 8.0. […] Each experiment was performed in triplicate.
as §3

HEL (JAK2 V617F) cells = test: CCK-8 cell proliferation detection, HEL cells; type: cell-based; details: Homo sapiens, Table 2, CCK-8, 72 hrs
Text: as §1, §2, §3

SET 2 (JAK2 V617F) cells = test: CCK-8 cell proliferation detection, SET2 cells; type: cell-based; details: Homo sapiens, Table 2, CCK-8, 72 hrs
Text: as §1, §2, §3

JAK2 = JAK2 (Homo sapiens, UniProt O60674); test: JAK2 kinase activity test at molecular level (Z'-LYTE FRET); type: biochemical; details: Table 2; read-out: JAK2 IC50
Sequence of JAK2 (O60674 whole entry): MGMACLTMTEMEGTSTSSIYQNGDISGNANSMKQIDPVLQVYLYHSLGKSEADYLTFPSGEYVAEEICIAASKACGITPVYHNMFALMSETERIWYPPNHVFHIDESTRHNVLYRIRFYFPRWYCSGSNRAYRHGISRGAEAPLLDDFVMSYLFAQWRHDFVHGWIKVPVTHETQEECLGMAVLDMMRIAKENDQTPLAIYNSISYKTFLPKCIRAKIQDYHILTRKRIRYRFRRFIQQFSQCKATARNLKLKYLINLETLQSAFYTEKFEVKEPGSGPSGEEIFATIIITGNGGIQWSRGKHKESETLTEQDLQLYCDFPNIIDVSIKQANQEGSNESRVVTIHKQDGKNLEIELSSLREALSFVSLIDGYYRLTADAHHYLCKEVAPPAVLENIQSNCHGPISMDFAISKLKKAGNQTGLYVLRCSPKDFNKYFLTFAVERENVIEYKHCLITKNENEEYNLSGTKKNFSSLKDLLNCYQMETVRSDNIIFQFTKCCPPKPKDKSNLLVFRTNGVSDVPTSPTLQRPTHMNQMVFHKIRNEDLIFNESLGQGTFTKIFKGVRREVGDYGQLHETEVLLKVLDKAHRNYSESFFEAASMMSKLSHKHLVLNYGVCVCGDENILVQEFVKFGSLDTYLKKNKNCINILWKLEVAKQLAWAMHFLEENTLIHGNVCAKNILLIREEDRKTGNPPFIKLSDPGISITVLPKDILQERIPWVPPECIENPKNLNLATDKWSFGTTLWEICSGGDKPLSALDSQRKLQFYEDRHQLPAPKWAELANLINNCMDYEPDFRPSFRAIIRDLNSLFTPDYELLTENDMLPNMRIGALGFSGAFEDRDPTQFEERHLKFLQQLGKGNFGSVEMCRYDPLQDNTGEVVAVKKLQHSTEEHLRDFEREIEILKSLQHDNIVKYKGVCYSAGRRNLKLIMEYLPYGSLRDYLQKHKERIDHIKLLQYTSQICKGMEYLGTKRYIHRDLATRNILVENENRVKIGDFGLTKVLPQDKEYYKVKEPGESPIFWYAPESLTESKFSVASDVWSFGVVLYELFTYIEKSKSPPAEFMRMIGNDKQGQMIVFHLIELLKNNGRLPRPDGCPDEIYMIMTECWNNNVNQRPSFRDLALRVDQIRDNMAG
Protocol: JAK2 can catalyze the transfer of a phosphate group of adenosine triphosphate (ATP) to a polypeptide substrate, and the polypeptide substrate is labeled with two fluorescent groups, coumarin and fluorescein. […] Therefore, the inhibition rates of different compounds can be calculated by measuring the ratio of enzyme-catalyzed substrate phosphorylation percentages.
10 μL reaction system, 2.5 μL test compound, 5 μL kinase/peptide substrate mixture and 2.5 μL ATP solution were added into a 384-well plate, shaken for 30 s, and incubated at room temperature for 1 hour. 5 μL of proteolytic enzyme and 15 μL of the reaction system were added and shaken for 30 s and incubated at room temperature for 1 h. 5 μL of stop reagent was added, and the reaction system with a total volume of 20 μL was shaken for 30 seconds. A microplate reader was used to detect the fluorescence signal. […] The inhibition rates of the compound at 7 concentration gradients were determined, and the IC50 value for each compound was calculated by fitting curve with Origin 8.0.
as §3

[1] = Table 4, configurations of MXY-193
[2] = Homo sapiens, NCI-H3122, Table 2, CCK-8, 72 hrs

| Structure (SMILES) | IC50 (H3122 cells; Homo sapiens, NCI-H3122, Table 4, configurations of MXY-193) [µM] | IC50 (ALK; [1]) [µM] | IC50 (H3122 cells; [1]) [µM] | IC50 (H3122 cells; Homo sapiens, NCI-H3122, 72 h, Table 2, CCK-8, 72 hrs) [µM] | IC50 (H3122 cells; [2]) [µM] | IC50 (ALK; Table 2) [µM] | IC50 (JAK2) [µM] | IC50 (HEL (JAK2 V617F) cells; 72 h) [µM] | IC50 (SET 2 (JAK2 V617F) cells; SET-2, 72 h) [µM] | IC50 (HEL (JAK2 V617F) cells) [µM] | IC50 (SET 2 (JAK2 V617F) cells; SET-2) [µM] |
| --- | --- | --- | --- | --- | --- | --- | --- | --- | --- | --- | --- |
| CC(Oc1cc(-c2cncnc2)cnc1N)c1cc(F)ccc1Cl (centres unmarked) [MXY-032-45] | – | – | – | – | > 100 | 3.67 | 0.566 ± 0.029 | – | – | > 10 | > 10 |
| CC(Oc1cc(Nc2cc3ccccc3cn2)cnc1N)c1cc(F)ccc1Cl (centres unmarked) [MXY-032-69] | – | – | – | – | 25.3 ± 6.24 | > 10 | > 5 | – | – | 10.7 | > 50 |
| CC(Oc1cc(Nc2ccc3ccccc3n2)cnc1N)c1cc(F)ccc1Cl (centres unmarked) [MXY-032-85] | – | – | – | – | 12 ± 2.32 | > 10 | > 10 | – | – | 5.74 | > 50 |
| CC(Oc1cc(Nc2nccc3ccccc23)cnc1N)c1cc(F)ccc1Cl (centres unmarked) [MXY-032-87] | – | – | – | – | 17.4 ± 0.25 | > 10 | > 10 | – | – | 9.47 | > 50 |
| CC(Oc1cc(-c2cn(C)c3ccccc23)cnc1N)c1cc(F)ccc1Cl (centres unmarked) [MXY-89] | – | – | – | – | 6.874 ± 0.022 | 7.89 | 0.695 ± 0.002 | – | – | 2.44 | 11 |
| CC(Oc1cc(-c2cnn3ccccc23)cnc1N)c1cc(F)ccc1Cl (centres unmarked) [MXY-97] | – | – | – | – | 3.3 ± 0.05 | 1.23 | 0.061 ± 0.007 | – | – | 1.85 | 4.51 |
| COc1ncc(F)cc1C(C)Oc1cc(-c2cnn(C3CCNCC3)c2)cnc1N (centres unmarked) [MXY-111] | – | – | – | – | 0.988 ± 0.047 | 0.132 | – | – | – | 12.4 | 2.48 |

Now from value to compound, other results behind:

| IC50 (H3122 cells; Homo sapiens, NCI-H3122, Table 4, configurations of MXY-193) [µM] | IC50 (ALK; [1]) [µM] | IC50 (H3122 cells; [1]) [µM] | IC50 (H3122 cells; Homo sapiens, NCI-H3122, 72 h, Table 2, CCK-8, 72 hrs) [µM] | IC50 (H3122 cells; [2]) [µM] | IC50 (ALK; Table 2) [µM] | IC50 (JAK2) [µM] | Structure (SMILES) | IC50 (HEL (JAK2 V617F) cells; 72 h) [µM] | IC50 (SET 2 (JAK2 V617F) cells; SET-2, 72 h) [µM] | IC50 (HEL (JAK2 V617F) cells) [µM] | IC50 (SET 2 (JAK2 V617F) cells; SET-2) [µM] |
| --- | --- | --- | --- | --- | --- | --- | --- | --- | --- | --- | --- |
| 56.7 | 6.5 | – | – | – | – | – | CC(Oc1cc(-c2cnn(C3CCOCC3)c2)cnc1N)c1cc(F)ccc1Cl (single isomer, unassigned) [Configuration 1] | – | – | – | – |
| – | > 10 | > 100 | – | – | – | – | CC(Oc1cc(-c2cnn(C3CCOCC3)c2)cnc1N)c1cc(F)ccc1Cl (single isomer, unassigned) [Configuration 2] | – | – | – | – |
| – | – | – | 0.842 ± 0.056 | – | – | – | C[C@@H](Oc1cc(-c2cnn(C3CCNCC3)c2)cnc1N)c1c(Cl)ccc(F)c1Cl [Crizotinib, reference compound] | 7.3 | 0.47 | – | – |
| – | – | – | – | 9.91 ± 1.28 | 0.335 | 0.025 ± 0.001 | CC(Oc1cc(-c2cnn(C3COC3)c2)cnc1N)c1cc(F)ccc1Cl (centres unmarked) [MXY-032-51] | – | – | 4.67 | 31.2 |
| – | – | – | – | 6.34 ± 1.91 | 1.24 | 0.027 ± 0.001 | CC(Oc1cc(-c2cnn(C3CCOC3)c2)cnc1N)c1cc(F)ccc1Cl (centres unmarked) [MXY-032-53] | – | – | 4.54 | 44.1 |
| – | – | – | – | 11.6 ± 6.02 | 3.89 | 0.528 ± 0.008 | CC(Oc1cc(-c2cccc(N3CCOCC3)c2)cnc1N)c1cc(F)ccc1Cl (centres unmarked) [MXY-032-55] | – | – | 5.99 | 18.6 |
| – | – | – | – | 2.08 ± 0.803 | 5.28 | 0.157 ± 0.031 | CCOC(C)n1cc(-c2cnc(N)c(OC(C)c3cc(F)ccc3Cl)c2)cn1 (centres unmarked) [MXY-032-91] | – | – | 4.56 | 6.34 |
| – | – | – | – | 1.98 ± 0.84 | 2.33 | 0.015 ± 0.001 | COCCCn1cc(-c2cnc(N)c(OC(C)c3cc(F)ccc3Cl)c2)cn1 (centres unmarked) [MXY-032-93] | – | – | 3.45 | 2.88 |
| – | – | – | – | 1.36 ± 0.869 | 2.36 | 0.011 ± 0.001 | COCCn1cc(-c2cnc(N)c(OC(C)c3cc(F)ccc3Cl)c2)cn1 (centres unmarked) [MXY-032-95] | – | – | 2.34 | 3.9 |
